Literature values as cited in patent US7459569B2, “Method of forming iron hydroxypyrone compounds” (Vitra Pharmaceuticals Limited, priority 2002, dated 2008).

Details: given on an empty stomach

Structure (SMILES): O=S(=O)([O-])[O-].[Fe+2] [ferrous sulphate]
- absorption rate: 30%
